pIC50: −log10 of the molar value. Values after ≈ are worked out from the molar mass of the structure shown.
Columns and labels:
[1] = Cytotoxicity against multidrug resistant human VJ300 cells expressing P-gp assessed as cell growth inhibition measured after 72 hrs by MTT assay; format: functional, cell-based; conditions: VJ-300, 72 h
[2] = system: B16; test: Cytotoxicity against mouse B16 cells assessed as cell growth inhibition measured after 72 hrs by MTT assay; format: functional, cell-based; conditions: B16, 72 h
[3] = system: Plasmodium falciparum; test: Antiplasmodial activity against Plasmodium falciparum 3D7 infected in human erythrocytes assessed as cell growth inhibition incubated for 72 hrs by parasite lactate dehydrogenase assay; format: functional, organism-based; conditions: 3D7, 72 h
[4] = system: L1210; test: Cytotoxicity against mouse L1210 cells assessed as cell growth inhibition; format: functional, cell-based
[5] = system: KB; test: Cytotoxicity against human KB cells assessed as cell growth inhibition; format: functional, cell-based
[6] = system: N2a; test: Neuroprotective activity against paraquat induced mouse Neuro2a cells assessed as reduction in cell viability at 1 uM pretreated for 1 hr followed by paraquat addition measured after 24 hrs by MTT method relative to control; format: functional; conditions: time 25 hrs
[7] = system: SAOS-2; test: Cytotoxicity against human SAOS-2 cells assessed as cell growth inhibition incubated for 48 hrs by microplate reader based analysis; format: functional; conditions: SAOS-2, 48 h
[8] = Cytotoxicity against human SOSP-9607 cells assessed as cell growth inhibition incubated for 48 hrs by microplate reader based analysis; format: functional; conditions: SOSP-9607, 48 h
[9] = system: U2OS; test: Cytotoxicity against human U2OS cells assessed as cell growth inhibition incubated for 48 hrs by microplate reader based analysis; format: functional
[10] = system: MG-63; test: Cytotoxicity against human MG-63 cells assessed as cell growth inhibition incubated for 48 hrs by microplate reader based analysis; format: functional; conditions: MG-63, 48 h
[11] = system: Plasmodium falciparum; test: Antiplasmodial activity against chloroquine sensitive Plasmodium falciparum D6 assessed as cell growth inhibition; format: functional, organism-based
[12] = system: Plasmodium falciparum; test: Antiplasmodial activity against chloroquine sensitive Plasmodium falciparum W2 assessed as cell growth inhibition; format: functional, organism-based
[13] = biological target: Replicase polyprotein 1ab (Severe acute respiratory syndrome coronavirus 2) (UniProt P0DTD1); test: Binding affinity to SARS-CoV-2 3C-like protease assessed as change in gibbs free energy
[14] = Toxicity in mouse assessed as lethal dose; conditions: in vivo
[15] = Antagonist activity at alpha-adrenergic receptor in rat aortic strips assessed as receptor mediated adrenolytic activity; conditions: read-out: pA2 (converted)
[16] = Antagonist activity at serotonin receptor in rat aortic strips assessed as receptor mediated anti-serotoninergic activity; conditions: read-out: pA2 (converted)
[17] = system: Trichophyton mentagrophytes; test: […] activity against Trichophyton mentagrophytes assessed as […]; format: functional
[18] = system: Corynebacterium xerosis; test: Antibacterial activity against Corynebacterium xerosis assessed as bacterial growth inhibition; format: functional
[19] = biological target: Cyclin-dependent kinase 4 (Homo sapiens, UniProt P11802); test: Inhibition of CDK4 (unknown origin)
[20] = biological target: Xanthine dehydrogenase/oxidase (Homo sapiens, UniProt P47989); test: Inhibition of xanthine oxidase (unknown origin)
[21] = Antioxidant activity assessed as DPPH radical scavenging activity; format: functional
[22] = Inhibition of urease (unknown origin); design: species or system Homo sapiens
[23] = biological target: Prostaglandin G/H synthase 2 (Homo sapiens) (UniProt P35354); test: Inhibition of COX-2 (unknown origin) using arachidonic acid as substrate at 100 uM preincubated for 5 mins followed by substrate addition measured after 15 mins by absorbance based analysis relative to control; conditions: time 20.0 min
[24] = biological target: Prostaglandin G/H synthase 1 (Homo sapiens) (UniProt P23219); test: Inhibition of COX-1 (unknown origin) using arachidonic acid as substrate at 100 uM preincubated for 5 mins followed by substrate addition measured after 15 mins by absorbance based analysis relative to control; conditions: time 20.0 min
[25] = biological target: Polyunsaturated fatty acid 5-lipoxygenase (Homo sapiens) (UniProt P09917); test: Inhibition of 5-LOX (unknown origin) using arachidonic acid as substrate at 100 uM preincubated for 5 mins followed by substrate addition measured after 15 mins by absorbance based analysis relative to control; conditions: time 20.0 min
[26] = Toxicity in Artemia salina assessed as mortality at 10 ug/ml measured after 24 hrs by microscopic analysis; conditions: at 10 µg/mL, read-out: Activity
[27] = system: SMMC-7721; test: Cytotoxicity against human SMMC-7721 cells assessed as cell growth inhibition at 0.9 uM measured after 48 hrs by MTT assay relative to control; format: functional; design: scale not given: the % may be the effect or the level left
[28] = system: HepG2; test: Cytotoxicity against human HepG2 cells assessed as cell growth inhibition at 0.9 uM measured after 48 hrs by MTT assay relative to control; format: functional; design: scale not given: the % may be the effect or the level left
[29] = system: MCF7; test: Cytotoxicity against human MCF7 cells assessed as cell growth inhibition measured after 48 hrs by MTT assay; format: functional, cell-based; conditions: MCF7, 48 h
[30] = Toxicity in iv dosed Swiss-Webster mouse assessed as lethal dose at 7.5 ml/kg, iv administered through tail vein injection by Litchfield-Wilcoxon method; format: organism-based; conditions: in vivo

Chain of Polyunsaturated fatty acid 5-lipoxygenase (Homo sapiens) (P09917 whole entry): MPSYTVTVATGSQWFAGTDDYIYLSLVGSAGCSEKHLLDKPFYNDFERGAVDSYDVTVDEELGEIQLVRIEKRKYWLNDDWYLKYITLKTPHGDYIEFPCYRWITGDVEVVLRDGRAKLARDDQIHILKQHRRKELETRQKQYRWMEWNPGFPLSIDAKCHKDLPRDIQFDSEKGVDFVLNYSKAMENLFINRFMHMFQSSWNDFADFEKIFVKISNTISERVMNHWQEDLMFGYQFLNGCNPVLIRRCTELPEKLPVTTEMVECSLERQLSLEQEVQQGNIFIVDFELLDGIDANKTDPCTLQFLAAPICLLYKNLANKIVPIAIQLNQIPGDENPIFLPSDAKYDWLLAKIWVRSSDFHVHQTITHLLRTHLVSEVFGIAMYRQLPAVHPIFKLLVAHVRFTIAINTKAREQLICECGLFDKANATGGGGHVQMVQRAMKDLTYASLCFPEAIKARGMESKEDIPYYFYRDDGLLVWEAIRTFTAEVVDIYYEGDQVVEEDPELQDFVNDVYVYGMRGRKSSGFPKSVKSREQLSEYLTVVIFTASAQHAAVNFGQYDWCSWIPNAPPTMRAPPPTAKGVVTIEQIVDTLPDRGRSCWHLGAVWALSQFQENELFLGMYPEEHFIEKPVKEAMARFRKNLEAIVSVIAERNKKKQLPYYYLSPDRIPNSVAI
Chain of Xanthine dehydrogenase/oxidase (P47989 whole entry): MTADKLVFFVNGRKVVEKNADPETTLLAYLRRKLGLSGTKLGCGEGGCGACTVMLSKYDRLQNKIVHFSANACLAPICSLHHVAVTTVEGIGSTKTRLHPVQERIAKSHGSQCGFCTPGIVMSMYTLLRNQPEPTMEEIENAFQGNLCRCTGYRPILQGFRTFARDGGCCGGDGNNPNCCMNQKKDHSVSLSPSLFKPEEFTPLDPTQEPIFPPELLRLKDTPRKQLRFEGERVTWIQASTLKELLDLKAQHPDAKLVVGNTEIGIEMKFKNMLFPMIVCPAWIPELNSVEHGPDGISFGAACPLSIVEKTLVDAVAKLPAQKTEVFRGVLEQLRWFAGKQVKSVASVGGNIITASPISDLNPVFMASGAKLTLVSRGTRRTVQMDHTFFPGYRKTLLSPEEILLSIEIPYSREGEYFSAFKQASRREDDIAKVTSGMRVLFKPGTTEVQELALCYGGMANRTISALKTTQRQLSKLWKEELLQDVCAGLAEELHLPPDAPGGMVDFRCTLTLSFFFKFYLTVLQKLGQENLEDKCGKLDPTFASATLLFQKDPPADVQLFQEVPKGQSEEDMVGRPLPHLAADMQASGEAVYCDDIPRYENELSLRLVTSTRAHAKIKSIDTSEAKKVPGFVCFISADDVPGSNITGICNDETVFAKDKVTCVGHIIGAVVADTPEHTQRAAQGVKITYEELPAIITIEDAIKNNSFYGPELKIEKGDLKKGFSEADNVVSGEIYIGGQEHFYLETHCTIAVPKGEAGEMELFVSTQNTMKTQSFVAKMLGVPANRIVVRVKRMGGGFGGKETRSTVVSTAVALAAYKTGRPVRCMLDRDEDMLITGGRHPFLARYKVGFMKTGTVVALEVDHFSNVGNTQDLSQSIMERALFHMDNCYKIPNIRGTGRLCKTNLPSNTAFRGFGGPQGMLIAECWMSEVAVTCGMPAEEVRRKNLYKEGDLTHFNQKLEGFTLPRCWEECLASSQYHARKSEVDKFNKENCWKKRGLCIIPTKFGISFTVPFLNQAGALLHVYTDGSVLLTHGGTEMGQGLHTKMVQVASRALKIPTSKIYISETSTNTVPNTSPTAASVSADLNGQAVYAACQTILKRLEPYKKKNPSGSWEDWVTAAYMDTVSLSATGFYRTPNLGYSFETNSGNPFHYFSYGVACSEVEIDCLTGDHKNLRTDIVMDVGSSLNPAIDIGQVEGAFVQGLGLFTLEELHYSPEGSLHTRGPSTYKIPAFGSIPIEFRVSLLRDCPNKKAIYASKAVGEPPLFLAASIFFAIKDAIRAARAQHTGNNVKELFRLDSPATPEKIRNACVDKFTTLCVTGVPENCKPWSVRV
Chain of Prostaglandin G/H synthase 2 (Homo sapiens) (P35354 whole entry): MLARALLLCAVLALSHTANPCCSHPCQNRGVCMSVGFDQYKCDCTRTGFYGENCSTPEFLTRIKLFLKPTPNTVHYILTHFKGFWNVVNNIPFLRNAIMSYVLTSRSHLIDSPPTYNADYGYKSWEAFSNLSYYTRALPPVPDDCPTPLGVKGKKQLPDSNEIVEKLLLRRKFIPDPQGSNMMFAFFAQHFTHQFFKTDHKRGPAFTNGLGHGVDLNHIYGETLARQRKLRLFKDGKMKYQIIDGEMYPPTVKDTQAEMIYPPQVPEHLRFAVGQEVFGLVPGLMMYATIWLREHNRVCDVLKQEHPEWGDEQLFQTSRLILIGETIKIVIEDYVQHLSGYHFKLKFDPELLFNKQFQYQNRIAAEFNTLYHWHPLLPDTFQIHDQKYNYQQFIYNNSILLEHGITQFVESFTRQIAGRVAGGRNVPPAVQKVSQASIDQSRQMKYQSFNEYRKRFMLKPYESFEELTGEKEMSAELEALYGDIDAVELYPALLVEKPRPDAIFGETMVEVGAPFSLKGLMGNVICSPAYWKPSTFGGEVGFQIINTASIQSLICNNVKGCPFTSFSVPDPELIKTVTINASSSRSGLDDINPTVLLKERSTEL
Chain of Prostaglandin G/H synthase 1 (Homo sapiens) (P23219 whole entry): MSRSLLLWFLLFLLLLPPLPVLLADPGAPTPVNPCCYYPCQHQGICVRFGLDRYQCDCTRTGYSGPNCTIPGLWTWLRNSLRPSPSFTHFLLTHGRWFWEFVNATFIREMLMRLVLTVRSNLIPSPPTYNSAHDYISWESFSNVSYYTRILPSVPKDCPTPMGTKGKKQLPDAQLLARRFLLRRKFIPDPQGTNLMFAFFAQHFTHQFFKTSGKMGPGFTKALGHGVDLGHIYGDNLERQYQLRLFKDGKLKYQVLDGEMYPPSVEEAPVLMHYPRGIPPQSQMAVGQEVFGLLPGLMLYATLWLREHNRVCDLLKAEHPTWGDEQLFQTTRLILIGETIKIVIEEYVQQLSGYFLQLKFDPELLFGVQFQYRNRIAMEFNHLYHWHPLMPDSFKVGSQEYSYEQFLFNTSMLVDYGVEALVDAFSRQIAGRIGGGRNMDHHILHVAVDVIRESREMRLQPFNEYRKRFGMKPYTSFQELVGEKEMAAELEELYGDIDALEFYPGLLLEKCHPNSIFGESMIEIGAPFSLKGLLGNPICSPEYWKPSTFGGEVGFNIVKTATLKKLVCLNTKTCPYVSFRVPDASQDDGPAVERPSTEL
Chain of Cyclin-dependent kinase 4 (P11802 whole entry): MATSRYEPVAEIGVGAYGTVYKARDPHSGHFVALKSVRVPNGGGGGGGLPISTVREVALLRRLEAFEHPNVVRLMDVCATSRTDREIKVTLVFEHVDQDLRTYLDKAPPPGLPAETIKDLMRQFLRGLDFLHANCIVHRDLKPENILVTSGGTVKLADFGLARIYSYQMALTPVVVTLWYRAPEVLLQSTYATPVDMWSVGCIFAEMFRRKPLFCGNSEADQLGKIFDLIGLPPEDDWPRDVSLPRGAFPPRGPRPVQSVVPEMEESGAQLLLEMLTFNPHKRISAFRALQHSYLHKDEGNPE

With `C=C1C=C[C@@]23CC[C@@]45C(C2)[C@]4(CCN13)c1cc(OC)ccc1N5C(=O)OC` the IC50 [1] was 4.6 µg/mL (≈ 12.6 µM) and the IC50 [2] was 2.8 µg/mL (≈ 7.68 µM).
For `C=C1CC[C@@]23CC[C@@]45C(C2)[C@]4(CCN13)c1cc(OC)ccc1N5C(=O)OC`, the IC50 [1] was 4.6 µg/mL (≈ 12.6 µM) and the IC50 [2] was 7.2 µg/mL (≈ 19.6 µM).
`COc1cc([C@H]2Oc3ccc4[nH]cc5c4c3[C@@H]2C(=O)NCC5)ccc1OC(=O)C(C)(C)C` gave a pIC50 [3] of 3.91.
Work on `O=CC1=C[C@@]2(O)CC/C=C\CCCCN3CC[C@@H]1[C@]1(C[C@@H]4/C=C\CCCCN4[C@H]12)C3` [IRCINAL] yielded an IC50 [4] of 1.4 µg/mL (≈ 3.41 µM) and an IC50 [5] of 4.8 µg/mL (≈ 11.7 µM).
With `CC1(C)/C=C\N2C(=O)[C@]3(O)[C@H](O)CCN3C(=O)[C@@H]2Cc2c1[nH]c1ccccc21` the Activity [6] was 36.5%.
Compound `COC(=O)C1=C2Nc3c(OC)cccc3[C@]23CC[N+]2(C)C[C@H](C(C)=O)[C@H]1C[C@H]32` (some centres undefined) has a pIC50 [7] of 5.04, a pIC50 [8] of 5.04 and a pIC50 [9] of 5.04. It also gave a pIC50 [10] of 5.04.
Work on `O=C1NCCc2c[nH]c3ccc4c(c23)[C@H]1[C@@H](c1ccc2c(c1)OCO2)O4` yielded an IC50 [11] of 3.93 µg/mL (≈ 11.3 µM), an IC50 [12] of 4.41 µg/mL (≈ 12.7 µM) and a deltaG [13] of -9.1 kcal/mol.
Work on `C[N@@+]12CC[C@]34c5ccccc5N5/C=C6\[C@@H]7N(/C=C(\[C@H]53)[C@H](C[C@@H]41)/C(=C\CO)C2)c1ccccc1[C@@]71CC[N@@+]2(C)C/C(=C/CO)[C@H]6C[C@@H]12` yielded an LD [14] of 0.8 mg/kg.
In the case of `CC1(C)/C=C\N2C(=O)[C@]3(O)[C@@H](O)CCN3C(=O)[C@@H]2Cc2c1[nH]c1ccccc21`, the Activity [6] was 30.3%.
In the case of `CN1CCc2ccccc2-c2cc(O)c(O)cc2C1`, the Kb [15] was 0.02 µM and the Kb [16] was 3.02 µM.
In the case of `C1=C\CCc2cc3c(o2)[C@@H]2N4CCCC/C=C\[C@H]4C[C@@]24CN(CCCC/1)CC[C@@H]34`, the IC50 [4] was 1.3 µg/mL (≈ 3.31 µM), the MIC [17] was 23 µg/mL (≈ 58.6 µM) and the MIC [18] was 11 µg/mL (≈ 28 µM). The pIC50 [19] was 4.60.
Work on `COC(=O)C1=C2Nc3c(O)cccc3[C@]23CC[N+]2(C)C[C@H](C(C)=O)[C@H]1C[C@H]32` (some centres undefined) yielded a pIC50 [7] of 5.04, a pIC50 [8] of 5.04 and a pIC50 [9] of 5.04. The pIC50 [10] was 5.04.
With `C/C=C1\CN2CC[C@@H]1[C@](CO)(C(=O)OC)c1[nH]c3ccccc3c1C2` the pIC50 [20] was < 4.00, the pIC50 [21] was 4.61 and the pIC50 [22] was 4.49. The inhibition [23] was 63.7%, the inhibition [24] was 49.4% and the inhibition [25] was 60.8%.
With `COc1cc([C@H]2Oc3ccc4[nH]cc5c4c3[C@H]2C(=O)NCC5=O)ccc1O` the mortality at 24 h, 10 ug/ml [26] was 90%.
With `CCC(=O)Oc1ccc([C@H]2Oc3ccc4[nH]cc5c4c3[C@@H]2C(=O)NCC5)cc1OC` the pIC50 [3] was 4.44.
`COc1cc2c(cc1OC)[C@@]13CCN4CC5=CCO[C@H]6CC(=O)N2[C@H]1[C@H]6[C@H]5C[C@H]43` [BRUCINE] showed an Activity [27] of 92.3%, an Activity [28] of 78.3% and a pIC50 [29] of 3.55. It also gave an LD50 [30] of 12 mg/kg.

— ChEMBL document CHEMBL5120753, “Isolation and biological activity of azocine and azocane alkaloids” (Bioorg Med Chem, 2022)
